A short description of this data set: photoluminescence quantum yield (fraction); solvent given as SMILES.
[1] abbreviates: in O=P(c1ccccc1)(c1ccccc1)c1ccccc1Oc1ccccc1P(=O)(c1ccccc1)c1ccccc1.

With `CCCCCCCCC1(CCCCCCCC)c2cc3c(cc2-c2sc(-c4ccc(/C=C5\SC(SCC)=NC5=O)c5nsnc45)cc21)C(CCCCCCCC)(CCCCCCCC)c1cc(-c2ccc(/C=C4\SC(SCC)=NC4=O)c4nsnc24)sc1-3`, the photoluminescence quantum yield is, setting by setting: (in C1CCOC1) 0.053; (in ClC(Cl)Cl) 0.059.

Turning to `CCn1c2cc(OC)ccc2c2c3nsnc3c3c4ccc(OC)cc4n(CC)c3c21`, the photoluminescence quantum yield worked out at 0.49 (in CN(C)C=O), 0.41 (in Cc1ccccc1) and 0.44 (in ClCCl).

For the molecule `CC(=O)Nc1ccc(O)cc1`, the photoluminescence quantum yield runs as follows: (in C1CCOC1) 0.0031; (in CC#N) 0.0035; (in CCCCO) 0.0007; (in CO) 0.0037; (in CS(C)=O) 0.0022.

With `c1ccc(-c2c3c(c(-c4ccccc4)c4cc5ccccc5cc24)Cc2c(c(-c4ccccc4)c4cc5ccccc5cc4c2-c2ccccc2)C3)cc1`, the photoluminescence quantum yield by setting is: (in CC#N) 0.27; (in CCCCCC) 0.28; (in CO) 0.3; (in Cc1ccccc1) 0.61; (in ClCCl) 0.21.

With `COC(=O)CCC1=CC(C#Cc2cccs2)=[N+]2C1=Cc1c(CCC(=O)OC)cc(C#Cc3cccs3)n1[B-]2(F)F`, the photoluminescence quantum yield (in ClCCl) turned out to be 0.17.

For the molecule `CCC1=C(C)C2=C(c3ccc(-c4c5ccccc5c(-c5ccccc5)c5ccccc45)cc3)c3c(C)c(CC)c(C)n3[B-](F)(F)[N+]2=C1C`, the photoluminescence quantum yield reads like this: (in CC#N) 0.696; (in CCCCCC) 0.756; (in CCO) 0.841; (in CN(C)C=O) 0.232; (in Cc1ccccc1) 0.781; (in ClCCl) 0.744.

The molecule `CCCCn1c(-c2ccc(-c3nnc(-c4cccs4)o3)cc2)nc(-c2ccccc2)c1-c1ccccc1` had a photoluminescence quantum yield (in ClCCl) of 0.33.

`CCCCCCCCCCCCN1C(=O)c2c(c3ccc4cc(-c5ccc(C)cc5)c(OC)cc4c3c3c2ccc2cc(-c4ccc(C)cc4)c(OC)cc23)C1=O` displayed a photoluminescence quantum yield (in ClCCl) of 0.151.

`CC(C)[Si]1(C(C)C)c2cc(C=C(C#N)C#N)ccc2-c2ccc(N(C)C)cc21`: the photoluminescence quantum yield by setting is: (in C1CCCCC1) 0.08; (in CC#N) 0.32; (in CCO) 0.16; (in CCOCC) 0.56; (in CS(C)=O) 0.23; (in ClCCl) 0.56. Besides, for the setting “in c1ccccc1”, the photoluminescence quantum yield is 0.36.

As for `c1ccc(-n2nc(-c3ccc(-c4ccc5c(c4)C(c4ccccc4)(c4ccccc4)c4ccccc4-5)cc3)nc2-c2ccccn2)cc1`, where the note is “in ClCCl”, the photoluminescence quantum yield came to 0.158.

Molecule `c1ccc2cc(-c3c4ccccc4c(-c4ccc(-n5c6ccccc6c6ccccc65)cc4)c4ccccc34)ccc2c1` had a photoluminescence quantum yield (in ClCCl) of 0.76.

With `COc1ccc2cc(/C=C/c3ccccc3)c(=O)oc2c1`, where the note is “in CC#N”, the photoluminescence quantum yield worked out at 0.71.

For `Cn1c2ccc(S(=O)(=O)O)cc2c(=O)c2cc(S(=O)(=O)O)ccc21`, the photoluminescence quantum yield came out at 0.64 (in CS(C)=O) and 0.76 (in O).

With `COc1ccc(N(c2ccc(OC)cc2)c2cc(N(c3ccc(OC)cc3)c3ccc(OC)cc3)c3ccc4cc(C(C)(C)C)cc5ccc2c3c54)cc1`, where the note is “in ClCCl”, the photoluminescence quantum yield is 0.6.

Turning to `N#Cc1cc(N2c3ccccc3Oc3ccccc32)c(N2c3ccccc3Oc3ccccc32)cc1C#N`, the photoluminescence quantum yield (in c1ccc2c(c1)c1ccccc1n2-c1ccc(-c2ccc(-n3c4ccccc4c4ccccc43)cc2)cc1) was 0.064.

`COc1ccc2c3ccc(OC)cc3n(-c3ccc(-c4nnc(-c5c(C)cc(C)cc5C)o4)cc3C)c2c1` yielded a photoluminescence quantum yield (in Cc1ccccc1) of 0.06.

For the molecule `CCCCc1ccc2ccc3c(CCCC)ccc4ccc1c2c43`, the photoluminescence quantum yield reads like this: (in CCCCCC) 0.47; (in CO) 0.6; (in ClCCl) 0.36.

`C[C@]12SC(=O)C=C1c1nc(-c3ccccc3O)[nH]c1C1=CC(=O)S[C@@]12C` had a photoluminescence quantum yield (in CC#N) of 0.01.

For the molecule `COc1ccc(-c2csc(/C(C#N)=C/c3ccc(C#N)cc3)n2)cc1`, the photoluminescence quantum yield was determined as 0.008 (in CC#N); 0.008 (in CCO); 0.002 (in CN(C)C=O); 0.248 (in Cc1ccccc1); 0.065 (in ClCCl).

As for `CC(C)[Si](C#Cc1c2cc3ccccc3cc2c(C#C[Si](C(C)C)(C(C)C)C(C)C)c2nc3c(nc12)Cc1ccccc1-3)(C(C)C)C(C)C`, the photoluminescence quantum yield (in CCCCCC) came out at 0.15.

Turning to `CCCC1=Cc2nc1ccc1[nH]c(cc1CCC)c1nc(c(NC(=O)CCCC(=O)OC)cc3[nH]c2cc3CCC)C(CCC)=C1`, the photoluminescence quantum yield (in Cc1ccccc1) came out at 0.2.

`COc1ccc(/C=C/c2cc(/C=C/c3ccc(N(c4ccccc4)c4ccccc4)cc3)nc(/C=C/c3ccc(N(C)C)cc3)n2)cc1` showed a photoluminescence quantum yield (in ClCCl) of 0.02.

`c1ccc2c(-c3ccc4sc5ccccc5c4c3)c3ccccc3cc2c1`: the photoluminescence quantum yield runs as follows: (in C1CCCCC1) 0.52; (in CC#N) 0.43; (in ClCCl) 0.7.

`CN(C)c1ccc(/C=C/c2ccnc(/C=C/c3ccc(N(C)C)cc3)n2)cc1` yielded a photoluminescence quantum yield (in ClCCl) of 0.04.

`CC1(C)c2ccccc2N(c2ccccc2)c2ccc(S(=O)(=O)c3ccc4c(c3)C(C)(C)c3ccccc3N4c3ccccc3)cc21`: the photoluminescence quantum yield under setting [1] was 0.5.

`CC1(C)CCc2c(c3ccccc3c3nc4c(nc23)c2c(c3ccccc34)OC(C)(C)CC2)O1`: the photoluminescence quantum yield reads like this: (in C1CCCCC1) 0.33; (in C1COCCO1) 0.47; (in CC#N) 0.28; (in CC(C)O) 0.4; (in CCCCCC) 0.37; (in ClC(Cl)Cl) 0.42. Besides, the photoluminescence quantum yield (in c1ccccc1) worked out at 0.29.

Under “in C1CCOC1”, `COc1ccc(-c2cnc3nn4ccccc4c3n2)cc1` gave a photoluminescence quantum yield of 0.83.

Turning to `Cc1cc(C)c(B(c2ccc(N3c4ccccc4Oc4ccccc43)cc2)c2c(C)cc(C)cc2C)c(C)c1`, the photoluminescence quantum yield (in Cc1ccccc1) amounted to 0.87.

As to `CCCCOC(=O)c1cc(Cl)c2c3c(Cl)cc4c5c(cc(Cl)c(c6c(Oc7ccc(C(=O)OC)cc7)cc(C(=O)OCCCC)c1c26)c53)C(=O)N(c1c(C(C)C)cccc1C(C)C)C4=O`, the photoluminescence quantum yield (in Cc1ccccc1) stood at 0.92.

With `COc1cc(OC)cc(C2=C3C(C)=C(I)C(C)=[N+]3[B-](F)(F)n3c(/C=C/c4c[nH]c5ccc([N+](=O)[O-])cc45)c(I)c(C)c32)c1`, the photoluminescence quantum yield stood at 0.32 (in C1CCOC1), 0.19 (in CS(C)=O) and 0.37 (in ClCCl).

Where the note is “in CC#N”, `COC(=O)C12N=N[C@](C(=O)OC)(C3C4CCC(C4)C31)[C@@]1(C)C[C@@H]21` (stereo partly drawn) yielded a photoluminescence quantum yield of 0.043.

Consider `COC(=O)c1cc(=O)n(C)c2cc(-c3cccc(OC)c3)sc12`, for which the photoluminescence quantum yield by setting is: (in CC#N) 0.32; (in ClCCl) 0.48.

As for `CCCCCCCCC1(CCCCCCCC)c2cc3c(cc2-c2sc(-c4ccc(/C=C5\SC(N6CCCCC6)=NC5=O)c5nsnc45)cc21)C(CCCCCCCC)(CCCCCCCC)c1cc(-c2ccc(/C=C4\SC(N5CCCCC5)=NC4=O)c4nsnc24)sc1-3`, the photoluminescence quantum yield by setting is: (in C1CCOC1) 0.14; (in ClC(Cl)Cl) 0.144.

`O=S1(=O)c2ccccc2-c2cc(-c3c4ccccc4cc4ccccc34)ccc21` had a photoluminescence quantum yield (in C1CCCCC1) of 0.36, a photoluminescence quantum yield (in CC#N) of 0.14 and a photoluminescence quantum yield (in ClCCl) of 0.24.

Turning to `CC(C)(C)c1ccc2c(c1)c1cc(C(C)(C)C)ccc1n2-c1cc(C(=O)c2ccccn2)cc(-n2c3ccc(C(C)(C)C)cc3c3cc(C(C)(C)C)ccc32)c1`, the photoluminescence quantum yield was 0.072 (in Cc1ccccc1) and 0.96 (in c1cc(-c2cccc(-n3c4ccccc4c4ccccc43)c2)cc(-n2c3ccccc3c3ccccc32)c1).

On to `CC[N+]1(CC)CN2C(=N1)C(C(=O)[O-])=Cc1ccccc12`, for which the photoluminescence quantum yield (in CN(C)C=O) came to 0.05 and the photoluminescence quantum yield (in O) turned out to be 0.736.

Take `COc1ccc(-c2cc3ccccc3p2-c2ccccc2)cc1` (stereo not drawn): the photoluminescence quantum yield (in C1CCOC1) worked out at 0.09.

`Oc1ccc2ccccc2c1C1Nc2cccc3cccc(c23)N1`: the photoluminescence quantum yield (in CC#N) turned out to be 0.03, the photoluminescence quantum yield (in CO) was determined as 0.03, the photoluminescence quantum yield (in CS(C)=O) amounted to 0.14 and the photoluminescence quantum yield (in Cc1ccccc1) was 0.33.

As for `CCOC(=O)CN(CC(=O)OCC)c1ccc(-c2cc(-c3cccnc3)nc(-c3cccnc3)c2)cc1`, the photoluminescence quantum yield runs as follows: (in CC#N) 0.57; (in CCOC(C)=O) 0.69; (in CN(C)C=O) 0.53; (in CS(C)=O) 0.51; (in c1ccccc1) 0.77.

Regarding `COc1ccc(/C=C/c2nc3ccccc3s2)cc1`, the photoluminescence quantum yield turned out to be 0.005 (in C1CCCCC1) and 0.001 (in CO).

Molecule `Nc1ccc2nc(-c3ccccc3)c(=O)oc2c1` returned a photoluminescence quantum yield (in c1ccccc1) of 0.697.

In turn, `CCn1c2c(-c3ccc(-c4cccs4)s3)cc(C(C)(C)C)cc2c2cc(C(C)(C)C)cc(-c3ccc(-c4cccs4)s3)c21` gave a photoluminescence quantum yield (in ClCCl) of 0.106.

Take `c1ccc(-c2nc(-c3ccc(N4c5ccccc5C(c5ccccc5)(c5ccccc5)c5ccccc54)cc3)cc(-c3ccccn3)n2)cc1`: the photoluminescence quantum yield under setting [1] stood at 0.83.

The molecule `COc1ccc(-c2cc3c(ccc4sccc43)s2)cc1` displayed a photoluminescence quantum yield (in ClCCl) of 0.55.

Turning to `COc1ccc(C2=C(c3ccc([N+](=O)[O-])cc3)C(c3ccccc3)=[N+]3C2=Nc2c(-c4ccc(OC)cc4)c(-c4ccc([N+](=O)[O-])cc4)c(-c4ccccc4)n2[B-]3(F)F)cc1`, the photoluminescence quantum yield (in Cc1ccccc1) was 0.05.
